Columns and labels:
Format in all cases: physicochemical
[1] = Dynamic Vapor Sorption (DVS), moisture sorption/desorption; conditions: data not shown; for hygroscopicity suggested by vapor sorption data: DVS, 5% to 98% RH
From the text: Dynamic Vapor Sorption (DVS): Moisture sorption/desorption data were collected on a DVS-intrinsic vapor sorption analyser (Surface Measurement Systems NA, Allentown, PA, USA) and operating with DVS-intrinsic control software (Version 1.0.5.1). Samples were not dried prior to analysis. Sorption and desorption data were collected over a range from 5% to 98% relative humidity (RH) via 10% RH increments under a nitrogen purge. The equilibrium criterion used for analysis was less than 0.005% weight change in 10 min with a maximum equilibration time of 3 h.

[2] = Storage of solid form at RT, form followed by XRPD; conditions: storage at RT for about one month
Protocol: X-Ray Powder Diffraction (XRPD) Data Collection Strategy: XRPD patterns of samples were recorded at room temperature on Aeris X-ray diffractometer (Almelo, The Netherlands) using Cu Kα radiation (λ=1.54 Å) at 40 kV, 15 mA passing through a Ni monochromater. Data were collected in a continuous scan mode with a step size of 0.02° and dwell time of 149 s over an angular range of 3° to 40° 2θ. The sample was loaded on a zero-background holder and gently pressed by a clean glass slide to ensure coplanarity of the sample surface with the surface of the holder. Obtained diffractograms were analysed and plotted with HighScore Plus software (V 5.0; Almelo, The Netherlands).

[3] = Crystallization (polymorph) studies of compound 2: fast, reactive, slurry at 40° C., anti-solvent; solids analysed by XRPD; conditions: solvent 1,2 Prop Diol
Protocol: Forms I-XIII of compound 2 were prepared according to one of the crystallization methods described below, e.g., fast crystallization; reactive crystallization; slurry crystallization or anti-solvent crystallization.
Fast Crystallization Method: In a typical experiment, compound 2 (ca. 10 mg) was dissolved in minimum quantity the stated solvent while heating to 80° C. The resulted solution was allowed to cool down to room temperature. […]
Reactive Crystallization: Benzene sulfonic acid (BSA) was dissolved in THF to prepare a stock solution and used for all the reactive crystallization experiments. Compound A free base (ca. 30 mg) was dissolved in minimum quantity the stated solvent while heating to 80° C. The resultant compound A free base solutions were allowed to cooldown to RT and added one equivalent of BSA stock solution. It was observed that most of the reactions yielded precipitate. […]
Slurry Crystallization at 40° C. using Form I of compound 2: In a typical experiment, compound 2 (ca. 100 mg) was suspended in minimum quantity the stated solvent while heating to 40° C. The resulted slurries were allowed to stir at 40° C. for three days.
Anti-Solvent Crystallization: In a typical experiment, compound 2 (ca. 100 mg) was dissolved in solubilizing solvent. To that solution 200 μL anti-solvent was added slowly. These iterations were continued until the precipitation observed or maximum solvent quantity of ~15 mL.

Compound: C[C@@H](Oc1ccc2[nH]nc(-c3ccc(N4CC5(C4)CN(S(C)(=O)=O)C5)nc3)c2c1)c1c(Cl)cncc1Cl.O=C(O)CC(=O)O [Form I of Compound 26]
- hygroscopicity suggested by vapor sorption data [1]: moderately hygroscopic
- weight loss observed in the DVS data [1]: about 2.1%

Compound: C[C@@H](Oc1ccc2[nH]nc(-c3ccc(N4CC5(C4)CN(S(C)(=O)=O)C5)nc3)c2c1)c1c(Cl)cncc1Cl.O=C(O)/C=C/C(=O)O (stereo in doubt) [Form II of Compound 3]
- hygroscopicity suggested by vapor sorption data [1]: moderately hygroscopic

Compound: C[C@@H](Oc1ccc2[nH]nc(-c3ccc(N4CC5(C4)CN(S(C)(=O)=O)C5)nc3)c2c1)c1c(Cl)cncc1Cl.O=P(O)(O)O [Form I of Compound 23]
- hygroscopicity suggested by vapor sorption data [1]: hygroscopic

Compound: C[C@@H](Oc1ccc2[nH]nc(-c3ccc(N4CC5(C4)CN(S(C)(=O)=O)C5)nc3)c2c1)c1c(Cl)cncc1Cl [Form I of Compound 24]
- stability suggested by vapor sorption / DVS data [1]: instability
- weight loss observed in the DVS data [1]: about 3.27%

Compound: Br.C[C@@H](Oc1ccc2[nH]nc(-c3ccc(N4CC5(C4)CN(S(C)(=O)=O)C5)nc3)c2c1)c1c(Cl)cncc1Cl [Form II of Compound 12]
- hygroscopicity suggested by vapor sorption data [1]: moderately hygroscopic

Compound: C[C@@H](Oc1ccc2[nH]nc(-c3ccc(N4CC5(C4)CN(S(C)(=O)=O)C5)nc3)c2c1)c1c(Cl)cncc1Cl.O=S(=O)(O)c1ccccc1 [Form VIII of compound 2]
- solid form change during storage [2]: transformed to Form I of compound 2

Compound: C[C@@H](Oc1ccc2[nH]nc(-c3ccc(N4CC5(C4)CN(S(C)(=O)=O)C5)nc3)c2c1)c1c(Cl)cncc1Cl.O=C(O)C(O)C(O)C(=O)O [Form I of Compound 25]
- hygroscopicity suggested by vapor sorption data [1]: moderately hygroscopic

Compound: C[C@@H](Oc1ccc2[nH]nc(-c3ccc(N4CC5(C4)CN(S(C)(=O)=O)C5)nc3)c2c1)c1c(Cl)cncc1Cl.Cl [Form II of Compound 1]
- hygroscopicity suggested by vapor sorption data [1]: moderately hygroscopic

Compound: C[C@@H](Oc1ccc2[nH]nc(-c3ccc(N4CC5(C4)CN(S(C)(=O)=O)C5)nc3)c2c1)c1c(Cl)cncc1Cl.O=S(=O)(O)c1ccccc1 [Compound 2]
- Anti-Solvent Crystallization Result ([3]; anti-solvent 4-Me-2-Pentanone): Form-X
- Anti-Solvent Crystallization Result ([3]; anti-solvent DEE): Form-XI
- Anti-Solvent Crystallization Result ([3]; anti-solvent EtOAc): Form-XI
- Anti-Solvent Crystallization Result ([3]; anti-solvent T-butyl-methyl-ether): Form-XI

Compound: C[C@@H](Oc1ccc2[nH]nc(-c3ccc(N4CC5(C4)CN(S(C)(=O)=O)C5)nc3)c2c1)c1c(Cl)cncc1Cl [Form II of Compound 5]
- hygroscopicity suggested by vapor sorption data [1]: moderately hygroscopic
